Patent US5935829A, “Mutation assays involving blood cells that metabolize toxic substances” (priority 1992, dated 1999)
Like-named read-outs stand apart in the source and are kept apart here.

Tests used:
AHH-1 cells [1] = test system: AHH-1 cells
in vitro = details: human, ahh-1 cells, RELATIVE SURVIVAL; for viability at 48 h, 25 µM: 25 μM × 48 hours; for viability at 48 h, 50 µM: 50 μM × 48 hours; for viability at 48 h, 100 µM: 100 μM × 48 hours
[2] = test system: 6-TG resistant AHH-1 clones; test: Plating efficiency of clones resistant to 6-TG; format: cell-based, human; details: for Plating Efficiency with 6-TG & 2000 c/w: with 2000 wild type cells per well
wild type AHH-1 cells = test: Plating efficiency of wild type cells with 6-TG; format: cell-based, human
AHH-1 cells [3] = test: Cell clumping at concentrations of 6-TG in microtiter wells; format: cell-based, human
Procedure: When applied at relatively high concentrations to a colony of cells, 6-thioguanine (6-TG) causes the cells to clump together, rendering it difficult or impossible for live mutant cells to survive and create colonies. […] […]. Subsequent routine work was done using 0.5 μg/ml of 6-TG.

[4] = test system: 6-TG resistant AHH-1 cells
[5] = test system: AHH activity of AHH-1 cells; format: cell-based, human
Procedure: The quantity of 3-hydroxy BaP was measured by fluorescent intensity activated by a light wavelength of 396 nm and measured at 522 nm using a spectrofluorimeter (Farrand Model Mk-1, Valhalla, N.Y.).
After growth of the cells in culture medium with gentamycin and kanamycin, the cells were plated in microtiter plates at a density of about 0.2 cells per well. Colonies were isolated and characterized for BaP-induced growth inhibition. A total of 47 colonies were isolated and contacted with 40 uM BaP. In its normal state, BaP is not highly cytotoxic or mutagenic; however, if metabolized by oxidative activity into one or more epoxides or phenols, the metabolites tend to be toxic and mutagenic.
6-TG resistant clones were characterized for AHH activity by measuring the rate of production of 3-OH benzopyrene, a fluorescent metabolite of BaP which is created by AHH activity.

[6] = 25 μM × 48 hours, induction none
[7] = 50 μM × 48 hours, induction none
[8] = 100 μM × 48 hours, induction none
[9] = 75 μM × 48 hours, induction none
[10] = 1 μM × 48 hours, induction CEPE
[11] = 3 μM × 48 hours, induction CEPE
[12] = 10 μM × 48 hours, induction CEPE
[13] = 25 μM × 4.8 hours, induction CEPE

## Cc1cccc2c1ccc1ccccc12 [1MP, 1-methylphenanthrene]
AHH-1 cells [1]; 25 μM × 48 hours, induction BNF
  MUTANT FRACTION × 10^6, MEAN ± STD.DEV.: 3.6 ± 1.2 × 10^6
AHH-1 cells [1]; [6]
  MUTANT FRACTION × 10^6, MEAN ± STD.DEV.: 4.4 ± 1.2 × 10^6
AHH-1 cells [1]; 50 μM × 48 hours, induction BNF
  MUTANT FRACTION × 10^6, MEAN ± STD.DEV.: 8.9 ± 1.5 × 10^6
AHH-1 cells [1]; [7]
  MUTANT FRACTION × 10^6, MEAN ± STD.DEV.: 4.1 ± 1.2 × 10^6
AHH-1 cells [1]; 100 μM × 48 hours, induction BNF
  MUTANT FRACTION × 10^6, MEAN ± STD.DEV.: 7.8 ± 1.4 × 10^6
AHH-1 cells [1]; [8]
  MUTANT FRACTION × 10^6, MEAN ± STD.DEV.: 7.8 ± 1.1 × 10^6
In vitro; induction BNF
  viability at 48 h, 25 µM: 47%
  viability at 48 h, 50 µM: 35%
  viability at 48 h, 100 µM: 29%
In vitro; induction none
  viability at 48 h, 25 µM: 54%
  viability at 48 h, 50 µM: 38%
  viability at 48 h, 100 µM: 31%

## CC(=O)Nc1ccc2c(c1)Cc1ccccc1-2 [2AAF, 2-acetoaminofluorene]
AHH-1 cells [1]; [6]
  MUTANT FRACTION × 10^6, MEAN ± STD.DEV.: 4.8 ± 1.2 × 10^6
AHH-1 cells [1]; [7]
  MUTANT FRACTION × 10^6, MEAN ± STD.DEV.: 3.8 ± 1.1 × 10^6
AHH-1 cells [1]; [9]
  MUTANT FRACTION × 10^6, MEAN ± STD.DEV.: 6.9 ± 1.7 × 10^6
AHH-1 cells [1]; [8]
  MUTANT FRACTION × 10^6, MEAN ± STD.DEV.: 7.7 ± 0.7 × 10^6
In vitro; induction none
  viability at 48 h, 25 µM: 73%
  viability at 48 h, 50 µM: 50%
  viability at 48 h, 100 µM: 33%
In vitro; [9]
  viability at 48 h, 75 µM: 37%

## Nc1nc2nc[nH]c2c(=S)[nH]1 [6-TG, 6-thioguanine]
[2]; clone BP-3
  Plating Efficiency in 5 μg/ml 6-TG at 2 cells/well: 0.24
  Plating Efficiency with 6-TG & 2000 c/w: 0.23
[2]; clone BP-4
  Plating Efficiency in 5 μg/ml 6-TG at 2 cells/well: 0.34
  Plating Efficiency with 6-TG & 2000 c/w: 0.34
[2]; clone BP-5
  Plating Efficiency in 5 μg/ml 6-TG at 2 cells/well: 0.21
  Plating Efficiency with 6-TG & 2000 c/w: 0.20
[2]; clone BP-6
  Plating Efficiency in 5 μg/ml 6-TG at 2 cells/well: 0.26
  Plating Efficiency with 6-TG & 2000 c/w: 0.34
[2]; clone BP-7
  Plating Efficiency in 5 μg/ml 6-TG at 2 cells/well: 0.06
  Plating Efficiency with 6-TG & 2000 c/w: 0.07
Wild type AHH-1 cells
  Plating Efficiency in 5 μg/ml 6-TG at 2 cells/well: < 10^-3
Wild type AHH-1 cells; 2000 c/w
  Plating Efficiency with 6-TG & 2000 c/w: 10^-5
AHH-1 cells [3]; 0.5 μg/ml 6-TG
  cells per microtiter well that could be assayed: ≥ 20,000 cells per microtiter well
AHH-1 cells [3]; 5 μg/ml 6-TG
  cells per microtiter well that could be assayed without clumping: about 2,000 cells per microtiter well
[4]; 6-TG resistant mutant AHH-1 population, up to 5 μg/ml, about two cells per well
  sensitivity to toxic effects of 6-TG: not sensitive
[4]; seven 6-TG resistant clones
  growth rates with and without 6-TG: comparable growth rates

## C1=Cc2cc3cccc4ccc5ccc1c2c5c43 [CEPE, cyclopenteno(c,d)pyrene]
[5]
  induction of AHH activity: inducers
AHH-1 cells [1]; [10]
  MUTANT FRACTION × 10^6, MEAN ± STD.DEV.: 71 ± 6 × 10^6
AHH-1 cells [1]; [11]
  MUTANT FRACTION × 10^6, MEAN ± STD.DEV.: 78 ± 9 × 10^6
AHH-1 cells [1]; [12]
  MUTANT FRACTION × 10^6, MEAN ± STD.DEV.: 22 ± 2 × 10^6
AHH-1 cells [1]; [13]
  MUTANT FRACTION × 10^6, MEAN ± STD.DEV.: 34 ± 4 × 10^6
AHH-1 cells [1]; 25 μM × 48 hours, induction CEPE & BNF
  MUTANT FRACTION × 10^6, MEAN ± STD.DEV.: 74 ± 7 × 10^6
AHH-1 cells [1]; 50 μM × 48 hours, induction CEPE & BNF
  MUTANT FRACTION × 10^6, MEAN ± STD.DEV.: 64 ± 7 × 10^6
In vitro; [10]
  viability at 48 h, 1 µM: 61%
In vitro; [11]
  viability at 48 h, 3 µM: 63%
In vitro; [12]
  viability at 48 h, 10 µM: 59%
In vitro; [13]
  viability at 4.8 h, 25 µM: 54%
In vitro; induction CEPE & BNF
  viability at 48 h, 25 µM: 34%
  viability at 48 h, 50 µM: 27%
